Experimental data published in patent US4973593A, “Novel compounds for the treatment of hypertension” (Research Corporation Technologies, Inc., priority 1987, dated 1990).

Experiments:
[1] = tested on: cat cardioaccelerator nerve; assay: Cat Cardioaccelerator Nerve Assay (in vivo peripheral dopamine agonist activity); conditions: for % inhibn of nerve stimulation: N=3; for peripheral dopamine agonist activity: in vivo, summary of Table I
Protocol: Cats were anesthetized by injection of pentobarbital sodium (30 mg/kg) into the thoracic cavity, and the surgical and experimental procedure was according to the procedure described in Cannon, J. G., et al. in J. Med. Chem. 1984, 27, 186. Experimental compounds were administered intravenously in doses of 0.33 log intervals.
The compounds 11, 15, and 18 were evaluated for in vivo dopamine agonist activity in the cat cardioaccelerator nerve assay.

[2] = tested on: nigrostriatal projection; assay: Rotation Assay (circling behavior, 6-hydroxydopamine unilateral denervation of the nigrostriatal projection); assay type: in vivo, Male Sprague-Dawley rats; conditions: for antagonism of apomorphine-induced rotations in rats: apomorphine 0.25 mg/kg, compound 4.0 mg/kg; for rotational behavior in rats with unilateral lesions of the nigrostriatal projection: dose 4.0 mg/kg
Protocol: Male Sprague-Dawley rats with 6-hydroxydopamine unilateral denervation of the nigrostriatal projection were used to test compounds for circling behavior according to the procedure of Cannon, et al. in J. Med. Chem 1984, 27, 186. Compounds were administered at a dose of 4.0 mg/kg and were also evaluated for their ability to antagonize apomorphine (0.25 mg/kg) induced rotations.
Finally, the compounds 11, 15, and 18 were evaluated for in vivo rat rotation assay.

[3] = tested on: dopamine receptor; assay: Dopamine Receptor Binding Studies ([^3 H]spiroperidol displacement, rat striatal tissue); conditions: [^3 H]spiroperidol 2 nM
Protocol: A method of Seeman, et al., Proc. Natl. Acad. Sci. U.S.A., 1975, 72, 4376, was employed using [^3 H]spiroperidol (2 nM) and rat striatal tissue.
Compound 11 was also evaluated for its ability to displace [^3 H] spiroperidol (2nm) from rat striatal tissue.

Row | Structure (SMILES) | % inhibn of nerve stimulation ([1]; dose 0.035, iv) | % inhibn of nerve stimulation ([1]; dose 0.105, iv) | % inhibn of nerve stimulation ([1]; dose 0.315, iv) | peripheral dopamine agonist activity [1] | antagonism of apomorphine-induced rotations in rats [2] | rotational behavior in rats with unilateral lesions of the nigrostriatal projection [2] | ability to displace [^3 H]spiroperidol from rat striatal tissue [3] | % inhibn of nerve stimulation ([1]; dose 0.46, iv) | heart rate ([1]; dose 1.38, iv) | % inhibn of nerve stimulation ([1]; dose 1.38, iv) | arterial pressure ([1]; dose 4.60, iv) | % inhibn of nerve stimulation ([1]; dose 4.60, iv) | arterial pressure ([1]; dose 3.5, iv) | heart rate ([1]; dose 3.5, iv) | % inhibn of nerve stimulation ([1]; dose 3.5, iv)
1 | CN1CCCC2(OCCO2)C1Cc1cccc2[nH]ccc12 (stereo not drawn) [Compound 11, 6-(4-Indolylmethyl)-7-methyl-1,4-dioxa-7-azaspiro[4.5]decane] | 26 ± 19% | 48 ± 21% | 79 ± 11% | effective agonist activity | nor did they antagonize apomorphine-induced rotations | None of the compounds screened produced rotational behavior | inactive | – | – | – | – | – | – | – | –
2 | CN1CCCC2(OCCO2)C1Cc1ccccc1 (stereo not drawn) [Compound 18, 6-Benzyl-7-methyl-1,4-dioxa-7-azaspiro[4.5]decane] | – | – | – | effective agonist activity | nor did they antagonize apomorphine-induced rotations | None of the compounds screened produced rotational behavior | – | 22 ± 11.7% | Increased heart rate slightly at this dose | 18 ± 2.0% | Increased arterial pressure at this dose | 36 ± 12.3% | – | – | –
3 | CN1CCCC2(OCCO2)C1Cc1c[nH]c2ccccc12 (stereo not drawn) [Compound 15, 6-(3-Indolylmethyl)-7-methyl-1,4-dioxa-7-azaspiro[4.5]decane] | – | – | – | effective agonist activity | nor did they antagonize apomorphine-induced rotations | None of the compounds screened produced rotational behavior | – | – | – | – | – | – | Increased arterial pressure at this dose | Increased heart rate slightly at this dose | 32 ± 17.4%
